Test results taken from patent US11247973B2 (The University of Durham, priority 2016, dated 2022).

Legend:
[1] = Microsomal clearance, rat; type: in vitro ADME; details: male, Sprague Dawley, pooled liver microsomes
Experimental: (§1) Pooled human liver microsomes (pooled male and female), pooled rat liver microsomes (male Sprague Dawley rats) and pooled dog liver microsomes (male Beagle dog) are purchased from a reputable commercial supplier and stored at −80° C. prior to use.
(§2) Microsomes (final protein concentration 0.5 mg/mL), 0.1 M phosphate buffer pH 7.4 and compound 2 (final substrate concentration 3 μM; final DMSO concentration 0.25%) are pre-incubated at 37° C. prior to the addition of NADPH (final concentration 1 mM) to initiate the reaction. The final incubation volume is 50 μL. A control incubation is included for each compound tested where 0.1 M phosphate buffer pH 7.4 is added instead of NADPH (minus NADPH). Two control compounds are included with each species. All incubations are performed singularly for each test compound.
(§3) Compounds are incubated for 0, 5, 15, 30 and 45 min. The control (minus NADPH) is incubated for 45 min only. The reactions are stopped by transferring 25 μL of incubate to 50 μL methanol at the appropriate time points. […] Following protein precipitation, the sample supernatants are combined in cassettes of up to 4 compounds, internal standard is added and samples analysed by LC-MS/MS. From a plot of ln peak area ratio (compound peak area/internal standard peak area) against time, the gradient of the line is determined.

[2] = Microsomal clearance, human; type: in vitro ADME; details: both, pooled liver microsomes
Experimental: as §1, §2, §3

MTT cell toxicity assay = type: cell-based; details: African green monkey, Vero cells
Experimental: Vero cells were seeded in 96-well plates in a volume of 100 μL Optimem media supplemented with 1% FBS at a concentration of 1×10^4 cells per well. After an overnight incubation at 37° C. in a humidified 5% CO2 atmosphere, the monolayer of cells should be approximately 90% confluent. Compound 2 was titrated in pre-warmed Serum Free (SF) Optimem in a U-bottom 96 well plate. For compounds in a DMSO solution, titration in 100% DMSO was performed first and each concentration added individually to a 2× final concentration at 4% DMSO. Media was then removed from cells and replaced with titrated compounds (100 μl/well). Cells were incubated at 37° C. in a humidified 5% CO2 atmosphere for 48 hours.
The MTT solution on Optimem (4 mg/ml) was prepared and 2 ul added to each well before it was incubated for 2 hours at 37° C. in a humidified 5% CO2 atmosphere. Media was then removed from the cells and DMSO added (50 ul/well). Plates were placed on a shaker prior to reading in a Spectromax at 570 nm. Data was normalised relative to untreated controls (1% DMSO only) and CC50 values determined using non-linear regression analysis with Graphpad Prism software.

O=C(CNc1c(F)c(F)nc(F)c1F)N[C@H]1N=C(c2ccccc2)c2ccccc2NC1=O [Compound 2]
microsomal CLint at 3 μM ([1]; pH 7.4, 0.5 mg/mL protein, read-out: Intrinsic clearance - rat): 29.2 µL/min/mg | half-life at 3 μM ([1]; pH 7.4, read-out: t½ - rat): 47.5 min | microsomal CLint at 3 μM ([2]; pH 7.4, 0.5 mg/mL protein, read-out: Intrinsic clearance - human): 52.6 µL/min/mg | half-life at 3 μM ([2]; pH 7.4, read-out: t½ - human): 26.3 min | CC50 at 48 h (MTT cell toxicity assay): 63 µM
